Consider 2 compounds from article PMC10704437, “Sterol-activated amyloid beta fibril formation” (The Journal of Biological Chemistry, 2023).

Assay [1] has as its target T1, Aβ42 (Homo sapiens, UniProt P05067).
T1 construct: Small red spheres mark the Aβ42 peptide C-terminal residue, A42; purchased Sigma-Aldrich Corp
Nature of the assay: Aβ42 fibril formation monitored by ThT fluorescence, NEF model fitting. It counts as biochemical. The following applies: for Nucleation rate constant, NEF model: NEF fit of fibril formation progress curves; for Nucleation rate constant, NEF model / Elongation rate constant, forward / Elongation rate constant, reverse / Fragmentation rate constant: Aβ42 1.0 μM, ligand at saturation; for Elongation rate constant, forward / Elongation rate constant, reverse / Fragmentation rate constant: NEF fit; for increase of nucleation rate constant relative to the unliganded peptide: from NEF nucleation rate constants. The text has this: Reactions were initiated by the addition of ligand (at saturation) or buffer (control) to a fresh solution of Aβ42 and ThT (see Fig. 3 Legend). Such progress curves are often fit using a generalized sigmoidal function and compared on the basis of lag-time length and elongation-phase slope. Here, progress curves are fit numerically to the Nucleation-Elongation-Fragmentation (NEF) model ([51], [52]), using Copasi ([53]). Numerical modeling allows one to assess whether a particular mechanism adequately predicts experimental behavior and provides rate constants for the steps of the mechanism that can be compared across peptide•ligand combinations to identify where and to what extent ligands induce change.
Figure 3 Formation of CH•, CS•, and unliganded Aβ42fibrils.A, fibril formation. Fibril formation was monitored via the fluorescence increase (λex = 450 nm, λem = 482 nm) associated with the binding of ThT, which binds Aβ oligomers ≥5-mers. […] C. Progress curves were performed in triplicate, averaged, and fit numerically using the NEF polymerization model (see Results and discussion).
The NEF model assumes a slow, energetically unfavorable event generates a polymerization nucleus that rapidly adds monomers (at the elongation rate) to form oligomers. The reaction accelerates in a geometric fashion as oligomer fragmentation produces new nuclei. The tenets of the model are embodied in Equations (1), (2), (3), which form the basis of the Copasi model ([53]).(1) 2m⇆knucrevknucforn (2) m+n⇆kelrevkelforo+n (3) o→kfragn where m is monomer concentration, n is the concentration of surfaces capable of adding monomer, and o is the concentration of peptides that are in the interior of the polymer and thus cannot add monomers. knuc, kel, and kfrag are the nucleation, elongation, and fragmentation rate constants.
Fibril formation was monitored via the binding-induced change in ThT fluorescence (λex = 450 nm, λem = 482 nm) ([76]). […] C. Reagents (peptide, CH, CS, and ThT) were prepared immediately prior to use. CH and CS were solubilized in neat DMSO. Progress curves were determined in triplicate, and data were fit using the Nucleation-Fragmentation-Elongation (NEF) model (see Results and discussion).

Assay [2] addresses T1, Aβ42. Description: Sterol binding to Aβ42, pre-steady-state stopped-flow fluorescence. Conditions: for kon: calculated by dividing koff by Kd; for koff: determined in DHE displacement studies, stopped-flow, 25 °C. The method, then:
To establish the rates at which Aβ42•ligand complexes form and dissociate, the rate constants governing the binding reactions were determined. DHE binding was monitored in real time using a stopped-flow fluorimeter via binding-induced changes in DHE fluorescence. The reactions are pseudo first order in [ligand] and kobs was obtained by least-squares fitting progress curves to a single-exponential equation ([44], [45]). kobs values were determined (in triplicate) at a series of Aβ42 concentrations and the averaged values are plotted versus [Aβ42] in Figure 2B. kon and koff are given by the slope and intercept of the kobs-versus-[Aβ42] plot obtained by linear least-square fitting ([44], [45]). […] The rate constants are compiled in Table 1.
Figure 2 Sterol binding to Aβ42—pre-steady state studies.A, DHE binding. Reactions were monitored via binding induced changes in DHE fluorescence using a stopped-flow fluorimeter (λex = 325, λem > 400 nm). Fluorescence intensity, I, is reported relative to the intensity in the absence of ligand, Io. […] C was rapidly mixed (1:1, v/v) with a solution identical except that Aβ42 was replaced by DHE (40 nM, 2.7 × Kd). The bindingreaction curve shown is the average of five independent progress curves. The averaged curve was a least-squares fit to a single-exponential equation and the resulting best fit (indicated by the red line) yielded kobs. B, DHE kon and koff. kobs values obtained as in Panel A were determined in triplicate at varying Aβ42 concentrations and the averaged values are shown plotted versus [Aβ42]. kon and koff are given by the slope and intercept of a linear least-squares fit of the kobsversus [Aβ42] plot. C and D, CH and CS displacement reactions.
Pre-steady-state binding of sterols to Aβ42 was monitored via the binding-induced change in DHE fluorescence (λex = 325, λem > 400 nm) using an Applied Photophysics SX20 stopped-flow fluorimeter.
Three progress curves (each an average of five independently obtained curves) were collected at five separate Aꞵ42 concentrations. The observed rate constant (kobs) at a given [Aβ42] was obtained by fitting the average of the three curves to a single-exponential equation using Pro-K software ([75]). kon and koff were obtained from the slopes and intercepts predicted by linear least-squares analysis of kobs versus [Aβ42] plots.
C. […] Progress curves were determined in triplicate and koff was obtained by least-squares fitting the averaged curves to a single-exponential equation using Pro-K.

Where “and” joins values, the source holds several entries; their conditions need not be identical. Identical values can stand only once. Like-named read-outs stand apart in the source and are kept apart here.

T1 sequence (P05067 672-713 limits assumed): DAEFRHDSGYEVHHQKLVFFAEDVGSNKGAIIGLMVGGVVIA

Take `CC(C)CCC[C@@H](C)[C@H]1CC[C@H]2[C@@H]3CC=C4C[C@@H](O)CC[C@]4(C)[C@H]3CC[C@]12C` [CH, cholesterol]: at Aβ42 [1], the “Nucleation rate constant, NEF model” value is listed as 6.9 (0.2) × 10^−14 nM^−1 s^−1; the “Elongation rate constant, forward” value is given as 830 (20) μM^−1 s^−1; the “Elongation rate constant, reverse” value was 98 (1) s^−1; the Fragmentation rate constant is recorded as 5.6 (0.3) × 10^−11 s^−1. Moreover, at Aβ42 [1], the “increase of nucleation rate constant relative to the unliganded peptide” value was about 49 fold. Further, at Aβ42 [2], the kon is 2.1e+07 M⁻¹ s⁻¹ and the off-rate constant (koff) worked out at 2.5 s⁻¹. Besides, at Aβ42 [2] (ratio of rate constants, read-out: koff/kon), the Kd is 0.12 µM.
Turning to `CC(C)CCC[C@@H](C)[C@H]1CC[C@H]2[C@@H]3CC=C4C[C@@H](OS(=O)(=O)O)CC[C@]4(C)[C@H]3CC[C@]12C` [CS, cholesterol 3-sulfate], on Aβ42 [1] (CS•Aβ42 versus CH•Aβ42, calculated using Table 2 nucleation rate constants), the “CS/CH nucleation rate constant ratio, experimental” value is 261 fold and 260 fold. On Aβ42 [1], the “Nucleation rate constant, NEF model” value is listed as 1.8 (0.3) × 10^−11 nM^−1 s^−1; the “Elongation rate constant, forward” value is on record as 860 (60) μM^−1 s^−1; the “Elongation rate constant, reverse” value is 85 (1) s^−1; the Fragmentation rate constant is on record as 4.3 (0.7) × 10^−11 s^−1. In addition, the “increase of nucleation rate constant relative to the unliganded peptide” value on Aβ42 [1] was ~13,000 fold. Besides, at Aβ42 [2], the Kd was found to be 0.036 µM, the kon is 2.4e+07 M⁻¹ s⁻¹ and the koff is 0.88 s⁻¹.

In general, kon refers to the rate constant with which the complex forms. One may read the koff as the first-order rate constant of dissociation. Higher therefore signals a short-lived complex.
